Results as given in US9708293B2, “N-(pyridin-2-yl)pyrimidin-4-amine derivatives containing a sulfone group” (BAYER PHARMA AKTIENGESELLSCHAFT, priority 2012, dated 2017).

Tests used:
Caco-2 cells = assay: Proliferation assay, Caco-2; format: cell-based; conditions: Homo sapiens, Caco-2, 96 h; 4 days, crystal violet; read-out: Inhibition of Caco-2 cell proliferation IC50
Experimental: Cultivated tumour cells (HeLa, human cervical tumour cells, ATCC CCL-2; NCI-H460, human non-small cell lung carcinoma cells, ATCC HTB-177; A2780, human ovarian carcinoma cells, ECACC #93112519; DU 145, hormone-independent human prostate carcinoma cells, ATCC HTB-81; HeLa-MaTu-ADR, multidrug-resistant human cervical carcinoma cells, EPO-GmbH Berlin; Caco-2, human colorectal carcinoma cells, ATCC HTB-37; B16F10, mouse melanoma cells, ATCC CRL-6475) were plated at a density of 5,000 cells/well (DU145, HeLa-MaTu-ADR), 3,000 cells/well (NCI-H460, HeLa), 2,500 cells/well (A2780), 1,500 cells/well (Caco-2), or 1,000 cells/well (B16F10) in a 96-well multititer plate in 200 μL of their respective growth medium supplemented 10% fetal calf serum. After 24 hours, the cells of one plate (zero-point plate) were stained with crystal violet (see below), while the medium of the other plates was replaced by fresh culture medium (200 μl), to which the test substances were added in various concentrations (0 μM, as well as in the range of 0.001-10 μM; the final concentration of the solvent dimethyl sulfoxide was 0.5%). The cells were incubated for 4 days in the presence of test substances. Cell proliferation was determined by staining the cells with crystal violet: the cells were fixed by adding 20 μl/measuring point of an 11% glutaric aldehyde solution for 15 minutes at room temperature. After three washing cycles of the fixed cells with water, the plates were dried at room temperature. The cells were stained by adding 100 μl/measuring point of a 0.1% crystal violet solution (pH 3.0). After three washing cycles of the stained cells with water, the plates were dried at room temperature. The dye was dissolved by adding 100 μl/measuring point of a 10% acetic acid solution. The extinction was determined by photometry at a wavelength of 595 nm. The change of cell number, in percent, was calculated by normalization of the measured values to the extinction values of the zero-point plate (=0%) and the extinction of the untreated (0 μm) cells (=100%). […]

CDK2/CycE = target: T1, CDK2/CycE (Homo sapiens, UniProt P24941); assay: CDK2/CycE kinase assay (Method 2a); format: biochemical; conditions: 10 μM ATP
T1 construct: GST; purchased ProQinase GmbH (Freiburg, Germany); host or cells: insect cells (Sf9)
From the text: 2a. CDK2/CycE Kinase Assay:
CDK2/CycE-inhibitory activity of compounds of the present invention was quantified employing the CDK2/CycE TR-FRET assay as described in the following paragraphs:
Recombinant fusion proteins of GST and human CDK2 and of GST and human CycE, expressed in insect cells (Sf9) and purified by Glutathion-Sepharose affinity chromatography, were purchased from ProQinase GmbH (Freiburg, Germany). As substrate for the kinase reaction biotinylated peptide biotin-Ttds-YISPLKSPYKISEG (C-terminus in amid form) was used which can be purchased e.g. form the company JERINI Peptide Technologies (Berlin, Germany).
For the assay 50 nl of a 100 fold concentrated solution of the test compound in DMSO was pipetted into a black low volume 384 well microtiter plate (Greiner Bio-One, Frickenhausen, Germany), 2 μl of a solution of CDK2/CycE in aqueous assay buffer [50 mM Tris/HCl pH 8.0, 10 mM MgCl2, 1.0 mM dithiothreitol, 0.1 mM sodium ortho-vanadate, 0.01% (v/v) Nonidet-P40 (Sigma)] were added and the mixture was incubated for 15 min at 22° C. to allow pre-binding of the test compounds to the enzyme before the start of the kinase reaction. Then the kinase reaction was started by the addition of 3 μl of a solution of adenosine-tri-phosphate (ATP, 16.7 μM=>final conc. in the 5 μl assay volume is 10 μM) and substrate (1.25 μM=>final conc. in the 5 μl assay volume is 0.75 μM) in assay buffer and the resulting mixture was incubated for a reaction time of 25 min at 22° C. The concentration of CDK2/CycE was adjusted depending of the activity of the enzyme lot and was chosen appropriate to have the assay in the linear range, typical concentrations were in the range of 130 ng/mL. The reaction was stopped by the addition of 5 μl of a solution of TR-FRET detection reagents (0.2 μM streptavidine-XL665 [Cisbio Bioassays, Codolet, France] and 1 nM anti-RB(pSer807/pSer811)-antibody from BD Pharmingen [#558389] and 1.2 nM LANCE EU-W1024 labeled anti-mouse IgG antibody [Perkin-Elmer, product no. AD0077]) in an aqueous EDTA-solution (100 mM EDTA, 0.2% (w/v) bovine serum albumin in 100 mM HEPES/NaOH pH 7.0).
The resulting mixture was incubated 1 h at 22° C. to allow the formation of complex between the phosphorylated biotinylated peptide and the detection reagents. Subsequently the amount of phosphorylated substrate was evaluated by measurement of the resonance energy transfer from the Eu-chelate to the streptavidine-XL. Therefore, the fluorescence emissions at 620 nm and 665 nm after excitation at 350 nm was measured in a TR-FRET reader, e.g. a Rubystar (BMG Labtechnologies, Offenburg, Germany) or a Viewlux (Perkin-Elmer). The ratio of the emissions at 665 nm and at […] was taken as the measure for the amount of phosphorylated substrate. […]

An IC50 (Caco-2 cells) of 341 nM and an IC50 (CDK2/CycE) of 280 nM were found for `COc1cc(F)ccc1-c1cc(Nc2cc(CS(C)(=O)=O)ccn2)ncn1` [Example 1, 6-(4-Fluoro-2-methoxyphenyl)-N-{4-[(methylsulfonyl)methyl]pyridin-2-yl}pyrimidin-4-amine] in this work.
An IC50 (Caco-2 cells) of 52 nM and an IC50 (CDK2/CycE) of 73 nM were found for `COc1cc(F)ccc1-c1cc(Nc2cc(CS(C)(=O)=O)cc(C(F)(F)F)n2)ncn1` [Example 3, 6-(4-Fluoro-2-methoxyphenyl)-N-{4-[(methylsulfonyl)methyl]-6-(trifluoromethyl)pyridin-2-yl}pyrimidin-4-amine] in this work.
An IC50 (CDK2/CycE) of 92 nM was found for `COc1cc(F)ccc1-c1cc(Nc2cc(CS(C)(=O)=O)cc(F)n2)ncn1` [Example 4, 6-(4-Fluoro-2-methoxyphenyl)-N-{6-fluoro-4-[(methylsulfonyl)methyl]pyridin-2-yl}pyrimidin-4-amine] in this work.
An IC50 (Caco-2 cells) of 91 nM and an IC50 (CDK2/CycE) of 90 nM were found for `COc1cc(F)ccc1-c1cc(Nc2cc(CS(C)(=O)=O)cc(C)n2)ncn1` [Example 2, 6-(4-Fluoro-2-methoxyphenyl)-N-{6-methyl-4-[(methylsulfonyl)methyl]pyridin-2-yl}pyrimidin-4-amine] in this work.
